Reference: PubChem BioAssay (NCI)
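Protocol summary: plate cells (96-well), add compound at 5 concentrations, incubate 48 h, interpolate endpoints linearly. TGI is the concentration that stops growth completely.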

Tests used:
Test in all cases: inhibition of tumour cell growth, NCI panel, 48 h
KM12 colon = system: KM12 colon
M14 melanoma = system: M14 melanoma
IGROV1 ovarian = system: IGROV1 ovarian
UACC-257 melanoma = system: UACC-257 melanoma
SF-539 CNS = system: SF-539 CNS
HCC-2998 colon = system: HCC-2998 colon
OVCAR-4 ovarian = system: OVCAR-4 ovarian
NCI-H522 lung = system: NCI-H522 lung
OVCAR-3 ovarian = system: OVCAR-3 ovarian
HCT-15 colon = system: HCT-15 colon
RXF 393 renal = system: RXF 393 renal
SF-295 CNS = system: SF-295 CNS
BT-549 breast = system: BT-549 breast
LOX IMVI melanoma = system: LOX IMVI melanoma
RPMI-8226 leukemia = system: RPMI-8226 leukemia
A498 renal = system: A498 renal
SN12C renal = system: SN12C renal
MCF7 breast = system: MCF7 breast
SNB-19 CNS = system: SNB-19 CNS
MDA-MB-435 = system: MDA-MB-435
SK-MEL-28 melanoma = system: SK-MEL-28 melanoma
OVCAR-8 ovarian = system: OVCAR-8 ovarian
DU-145 prostate = system: DU-145 prostate
SF-268 CNS = system: SF-268 CNS
HS 578T breast = system: HS 578T breast
OVCAR-5 ovarian = system: OVCAR-5 ovarian
NCI-H23 lung = system: NCI-H23 lung
UO-31 renal = system: UO-31 renal
SK-MEL-2 melanoma = system: SK-MEL-2 melanoma
A549 NSCLC = system: A549 NSCLC
HT29 colon = system: HT29 colon
MDA-MB-231 breast = system: MDA-MB-231 breast
MOLT-4 leukemia = system: MOLT-4 leukemia
U251 CNS = system: U251 CNS
TK-10 renal = system: TK-10 renal
HCT-116 colon = system: HCT-116 colon
786-0 renal = system: 786-0 renal
HOP-92 NSCLC = system: HOP-92 NSCLC
HL-60(TB) leukemia = system: HL-60(TB) leukemia
CCRF-CEM leukemia = system: CCRF-CEM leukemia
UACC-62 melanoma = system: UACC-62 melanoma
PC-3 prostate = system: PC-3 prostate
NCI-H226 lung = system: NCI-H226 lung
MALME-3M melanoma = system: MALME-3M melanoma
CAKI-1 renal = system: CAKI-1 renal
SW-620 colon = system: SW-620 colon
NCI-H460 lung = system: NCI-H460 lung
SK-MEL-5 melanoma = system: SK-MEL-5 melanoma
ACHN renal = system: ACHN renal
SK-OV-3 ovarian = system: SK-OV-3 ovarian
EKVX NSCLC = system: EKVX NSCLC
NCI/ADR-RES ovarian = system: NCI/ADR-RES ovarian
SNB-75 CNS = system: SNB-75 CNS
K-562 leukemia = system: K-562 leukemia
HOP-62 NSCLC = system: HOP-62 NSCLC
COLO 205 colon = system: COLO 205 colon

Compound: Cc1ccc(C)n1-c1ccccc1C1C=Cn2c(=O)oc3c(OC(C)C)c(OC(C)C)c(O)c1c32 (stereo unspecified)
- TGI (KM12 colon): > 100 µM
- TGI (M14 melanoma): > 100 µM
- TGI (IGROV1 ovarian): > 100 µM
- TGI (UACC-257 melanoma): > 100 µM
- TGI (SF-539 CNS): > 100 µM
- TGI (HCC-2998 colon): > 100 µM
- TGI (OVCAR-4 ovarian): > 100 µM
- TGI (NCI-H522 lung): 75.5 µM
- TGI (OVCAR-3 ovarian): > 100 µM
- TGI (HCT-15 colon): > 100 µM
- TGI (RXF 393 renal): 32.7 µM
- TGI (SF-295 CNS): > 100 µM
- TGI (BT-549 breast): > 100 µM
- TGI (LOX IMVI melanoma): 38.4 µM
- TGI (RPMI-8226 leukemia): > 100 µM
- TGI (A498 renal): > 100 µM
- TGI (SN12C renal): > 100 µM
- TGI (MCF7 breast): > 100 µM
- TGI (SNB-19 CNS): > 100 µM
- TGI (MDA-MB-435): 38.6 µM
- TGI (SK-MEL-28 melanoma): > 100 µM
- TGI (OVCAR-8 ovarian): > 100 µM
- TGI (DU-145 prostate): > 100 µM
- TGI (SF-268 CNS): > 100 µM
- TGI (HS 578T breast): > 100 µM
- TGI (OVCAR-5 ovarian): > 100 µM
- TGI (NCI-H23 lung): > 100 µM
- TGI (UO-31 renal): 31.9 µM
- TGI (SK-MEL-2 melanoma): 78.2 µM
- TGI (A549 NSCLC): > 100 µM
- TGI (HT29 colon): > 100 µM
- TGI (MDA-MB-231 breast): 78.8 µM
- TGI (MOLT-4 leukemia): > 100 µM
- TGI (U251 CNS): > 100 µM
- TGI (TK-10 renal): > 100 µM
- TGI (HCT-116 colon): > 100 µM
- TGI (786-0 renal): > 100 µM
- TGI (HOP-92 NSCLC): > 100 µM
- TGI (HL-60(TB) leukemia): > 100 µM
- TGI (CCRF-CEM leukemia): > 100 µM
- TGI (UACC-62 melanoma): > 100 µM
- TGI (PC-3 prostate): 93.9 µM
- TGI (NCI-H226 lung): 36.1 µM
- TGI (MALME-3M melanoma): > 100 µM
- TGI (CAKI-1 renal): > 100 µM
- TGI (SW-620 colon): 75.6 µM
- TGI (NCI-H460 lung): > 100 µM
- TGI (SK-MEL-5 melanoma): > 100 µM
- TGI (ACHN renal): > 100 µM
- TGI (SK-OV-3 ovarian): > 100 µM
- TGI (EKVX NSCLC): > 100 µM
- TGI (NCI/ADR-RES ovarian): > 100 µM
- TGI (SNB-75 CNS): > 100 µM
- TGI (K-562 leukemia): > 100 µM
- TGI (HOP-62 NSCLC): > 100 µM
- TGI (COLO 205 colon): 30.9 µM
